In patent US8846704B2, “Thiopyrimidine-based compounds and uses thereof” (YM Biosciences Austraila Pty Ltd, priority 2007, dated 2014):

Biological target: T1, BaF3 TELJAK3 cells (Homo sapiens, UniProt P52333)
T1 construct: fused on or other part: TEL (ETV6) N-terminal part, coding nucleotides 1-487, serves as the oligomerising partner; It is fused through a Sal I site to the JAK3 kinase domain and expressed from pTRE2 in BaF3 cells bearing pTET-off; P41212 (Transcription factor ETV6)
T1 sequence (P52333 1-1124): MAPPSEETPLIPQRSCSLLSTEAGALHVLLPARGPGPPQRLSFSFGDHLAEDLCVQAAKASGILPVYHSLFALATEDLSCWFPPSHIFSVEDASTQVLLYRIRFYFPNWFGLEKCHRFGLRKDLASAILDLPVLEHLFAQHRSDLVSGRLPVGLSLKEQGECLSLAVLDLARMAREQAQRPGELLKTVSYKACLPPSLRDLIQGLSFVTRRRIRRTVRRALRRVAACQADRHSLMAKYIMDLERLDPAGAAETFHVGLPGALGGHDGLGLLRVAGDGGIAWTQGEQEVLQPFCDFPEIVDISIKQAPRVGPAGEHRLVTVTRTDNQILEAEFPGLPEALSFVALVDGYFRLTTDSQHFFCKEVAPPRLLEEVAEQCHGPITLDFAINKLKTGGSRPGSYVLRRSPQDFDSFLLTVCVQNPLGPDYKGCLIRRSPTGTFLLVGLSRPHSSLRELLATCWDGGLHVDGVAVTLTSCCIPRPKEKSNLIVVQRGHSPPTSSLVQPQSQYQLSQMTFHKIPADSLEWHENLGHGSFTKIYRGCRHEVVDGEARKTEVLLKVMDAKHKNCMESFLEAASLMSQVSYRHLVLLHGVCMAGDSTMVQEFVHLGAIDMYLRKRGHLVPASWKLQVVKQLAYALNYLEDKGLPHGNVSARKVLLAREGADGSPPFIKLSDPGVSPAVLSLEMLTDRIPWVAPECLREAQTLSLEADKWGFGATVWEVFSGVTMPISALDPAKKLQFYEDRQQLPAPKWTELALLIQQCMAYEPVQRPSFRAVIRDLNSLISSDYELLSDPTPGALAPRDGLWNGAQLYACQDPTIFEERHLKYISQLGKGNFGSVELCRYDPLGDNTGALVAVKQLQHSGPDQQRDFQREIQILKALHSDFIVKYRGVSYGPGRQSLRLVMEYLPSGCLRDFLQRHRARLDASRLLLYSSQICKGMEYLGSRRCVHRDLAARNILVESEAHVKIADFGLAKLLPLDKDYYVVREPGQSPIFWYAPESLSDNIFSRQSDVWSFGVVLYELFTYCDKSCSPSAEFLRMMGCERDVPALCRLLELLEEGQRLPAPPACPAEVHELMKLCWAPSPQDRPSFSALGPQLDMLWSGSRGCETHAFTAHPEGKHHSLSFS
Assay: Cellular screening, BaF3 TEL:JAK3 cells, Alamar Blue
Type: cell-based
Conditions: 40 hr, read-out: BafT_J3 IC50_nM
Experimental: For screening purposes, compounds were diluted in 96 well plates at a concentration of 20 μM. Plates were warmed at 37° C. for 30 minutes before the assay was performed.
The coding region encompassing nucleotides 1-487 of TEL was amplified by PCR using the oligonucleotides STEL (5′-GGAGGATCCTGATCTCTCTCGCTGTGAGAC-3′) [SEQ ID NO 14] and 3TEL (5′-AGGC GTCGACTTCTTCTTCATGGTTCTG-3′) [SEQ ID NO 15] and U937 mRNA as a template. A […] restriction site was incorporated into the STEL primer, and a Sal I restriction site was incorporated into the 3TEL primer. The regions encompassing the kinase domain of JAK2 (nucleotides 2994-3914; JAK2F 5′-ACGC GTCGACGGTGCCTTTGAAGACCGGGAT-3′ [SEQ ID NO 16]; JAK2R 5′-ATAGTTTAGCGGCCGCTCAGAATGAAGGTCATTT-3′) [SEQ ID NO 17] and JAK3 (nucleotides 2520-3469; JAK3F 5′-GAAGTCGACTATGCCTGCCAAGACCCCACGATCTT-3′) [SEQ ID NO 18] were generated by PCR using Taq DNA polymerase (Gibco/BRL) and […] as a template. A Sal I restriction site was incorporated into the forward primer of JAK2 and JAK3, a Not I site was incorporated into the JAK2 reverse primer and a Xba I site was added to the reverse primer of JAK3.
The TEL/Jak3 fusion was prepared by ligation of the JAK3 Sal I/Not I cleaved kinase domain PCR product with the BamH I/Sal I restriction digested TEL product, followed by ligation of the ligation product into the BamH I/Not I digested pTRE2, to give the TEL/Jak3 fusion plasmid pTELJAK3.
The growth factor dependant myelomonocytic cell line BaF3 bearing the pTET-off plasmid (Clontech) was transfected with either pTELJAK2 or pTELJAK3, and the transfected cells were selected for growth-factor independent cell growth. The BaF3 wild-type cells were cultured in DMEM containing 10% FCS, 10% WEHI 3B conditioned medium. The BaF3 TELJAK cells ([…]) were cultured in DMEM 10% Tet-System Approved FBS (without WEHI 3B conditioned medium).
Cell suspensions were prepared by harvesting cells from culture (the cells used in this test were in late log phase growth with high viability.) Cells were diluted in the appropriate growth medium, as described above, to 1.1× final concentration (from 50,000 cell/mL to 200,000 cell/mL, depending on cell line).
Compounds to be tested were added (10 μL, 10× final concentration) to a flat bottomed 96-well plate. The cellular suspension (90 μL per well) was then added, and the plate incubated for 40 hr at 37° C., 5% CO2. Alamar Blue 10 μL per well was added and the plates returned to the incubator for a further 4-6 hours. The plates were then read at 544 nm.

SMILES | GI50
C=CC(=O)Nc1ccc(Nc2nccc(SC)n2)cc1 [Compound 13, N-(4-(4-(methylthio)pyrimidin-2-ylao)phenyl)acrylamide] | > 20000 nM
Cc1cnc(Nc2ccc(N3CCOCC3)cc2)nc1Sc1ccc(NC(=O)/C=C\C(=O)O)cc1 [Compound 380, (Z)-4-(4-(5-methyl-2-(4-morpholinophenylao)pyrimidin-4-ylthio)phenylao)-4-oxobut-2-enoic acid] | > 20000 nM
Cc1cnc(Nc2cccc(O)c2)nc1Sc1ccc(NC(=O)CCl)cc1 [Compound 194, 2-chloro-N-(4-(2-(3-hydroxyphenylao)-5-methylpyrimidin-4-ylthio)phenyl)acetamide] | < 1000 nM
C=CC(=O)Nc1ccc(Sc2nc(Nc3ccc(N4CCN(C)CC4)cc3)ncc2C)cc1 [Compound 239, N-(4-(5-methyl-2-(4-(4-methylpiperazin-1-yl)phenylao)pyrimidin-4-ylthio)phenyl)acrylamide] | < 1000 nM
Cc1cc(N)ccc1Sc1nc(Nc2ccc(N3CCOCC3)cc2)ncc1C [Compound 162, 4-(4-ao-2-methylphenylthio)-5-methyl-N-(4-morpholinophenyl)pyrimidin-2-ae] | < 5000 nM
O=C(/C=C/Cl)Nc1cccc(Sc2ccnc(Nc3ccc(N4CCOCC4)cc3)n2)c1 [Compound 340, (E)-3-chloro-N-(3-(2-(4-morpholinophenylao)pyrimidin-4-ylthio)phenyl)acrylamide] | < 1000 nM
C=CC(=O)Nc1ccc(Sc2ccnc(Nc3ccc(N4CCOCC4)cc3)n2)cc1OC [Compound 123, N-(2-methoxy-4-(2-(4-morpholinophenylao)pyrimidin-4-ylthio)phenyl)acrylamide] | < 5000 nM
C=CC(=O)Nc1ccc(Sc2nc(Nc3ccc(N4CCOCC4)nc3)ncc2C)cc1 [Compound 254, N-(4-(5-methyl-2-(6-morpholinopyridin-3-ylao)pyrimidin-4-ylthio)phenyl)acrylamide] | < 1000 nM
Cc1cnc(Nc2ccc(N3CCOCC3)cc2)nc1Sc1ccc(N2C(=O)CSCC2=O)cc1 [Compound 231, 4-(4-(5-methyl-2-(4-morpholinophenylao)pyrimidin-4-ylthio)phenyl)thiomorpholine-3,5-dione] | < 20000 nM
C=CC(=O)Nc1ccc(Sc2nc(Nc3ccc(C)c(Br)c3)ncc2C)cc1 [Compound 242, N-(4-(2-(3-bromo-4-methylphenylao)-5-methylpyrimidin-4-ylthio)phenyl)acrylamide] | < 20000 nM
C=CC(=O)Nc1cccc(Nc2nccc(Sc3ccccn3)n2)c1 [Compound 2, N-(3-(4-(pyridin-2-ylthio)pyrimidin-2-ylamino)phenyl)acrylamide] | < 1000 nM
C=CC(=O)Nc1ccc(Sc2nc(Nc3ccc(N4CCC(O)C4)cc3)ncc2C)cc1 (stereo not shown) [Compound 295, N-(4-(2-(4-(3-hydroxypyrrolidin-1-yl)phenylao)-5-methylpyrimidin-4-ylthio)phenyl)acrylamide] | < 1000 nM
C=CC(=O)Nc1ccc(Sc2ccnc(Nc3ccc(O)cc3)n2)cc1 [Compound 276, N-(4-(2-(4-hydroxyphenylao)pyrimidin-4-ylthio)phenyl)acrylamide] | < 1000 nM
Cc1cnc(Nc2ccc(O)cc2)nc1Sc1ccc(NC(=O)CCl)cc1 [Compound 193, 2-chloro-N-(4-(2-(4-hydroxyphenylao)-5-methylpyrimidin-4-ylthio)phenyl)acetamide] | < 1000 nM
C=CC(=O)N(C)c1ccc(Sc2nc(Nc3ccc(N4CCOCC4)cc3)ncc2Br)cc1 [Compound 261, N-(4-(5-bromo-2-(4-morpholinophenylao)pyrimidin-4-ylthio)phenyl)-N-methylacrylamide] | < 1000 nM
C=CC(=O)N(C)c1ccc(Sc2nc(Nc3ccc(N4CCOCC4)cc3)ncc2C)cc1 [Compound 173, N-methyl-N-(4-(5-methyl-2-(4-morpholinophenylao)pyrimidin-4-ylthio)phenyl)acrylamide] | < 1000 nM
CC#CC(=O)Nc1cccc(Sc2ccnc(Nc3cccc(N4CCOCC4)c3)n2)c1 [Compound 232, N-(3-(2-(3-morpholinophenylao)pyrimidin-4-ylthio)phenyl)but-2-ynamide] | < 5000 nM
C=CC(=O)Nc1ccc(Sc2nc(Nc3ccc(N4CCN(C)CC4)c(OC)c3)ncc2C)cc1 [Compound 249, N-(4-(2-(3-methoxy-4-(4-methylpiperazin-1-yl)phenylao)-5-methylpyrimidin-4-ylthio)phenyl)acrylamide] | < 1000 nM
C=CC(=O)Nc1ccc(Sc2nc(Nc3cccc(N4CCN(C)CC4)c3)ncc2C)cc1 [Compound 243, N-(4-(5-methyl-2-(3-(4-methylpiperazin-1-yl)phenylao)pyrimidin-4-ylthio)phenyl)acrylamide] | < 1000 nM
C=CC(=O)Nc1ccc(Sc2nc(Nc3cccc(N4CCOCC4)c3)ncc2F)cc1 [Compound 267, N-(4-(5-fluoro-2-(3-morpholinophenylao)pyrimidin-4-ylthio)phenyl)acrylamide] | < 1000 nM
C=CC(=O)Nc1ccc(Sc2ccnc(Nc3cccc(O)c3)n2)cc1 [Compound 277, N-(4-(2-(3-hydroxyphenylao)pyrimidin-4-ylthio)phenyl)acrylamide] | < 1000 nM
N#Cc1nnn(Cc2ccc(Sc3ccnc(Nc4ccc(N5CCOCC5)cc4)n3)cc2)n1 [Compound 156, 2-(4-(2-(4-morpholinophenylao)pyrimidin-4-ylthio)benzyl)-2H-tetrazole-5-carbonitrile] | < 5000 nM
C=CC(=O)Nc1ccc(Sc2nc(Nc3ccc(C4CCN(C)CC4)cc3)ncc2C)cc1 [Compound 246, N-(4-(5-methyl-2-(4-(1-methylpiperidin-4-yl)phenylao)pyrimidin-4-ylthio)phenyl)acrylamide] | < 1000 nM
C=CC(=O)Nc1ccc(Sc2nc(Nc3cccc(N4CCOCC4)c3)ncc2C)cc1 [Compound 237, N-(4-(5-methyl-2-(3-morpholinophenylao)pyrimidin-4-ylthio)phenyl)acrylamide] | < 1000 nM
C=CC(=O)NCc1cccc(Sc2ccnc(Nc3ccc(N4CCOCC4)cc3)n2)c1 [Compound 112, N-(3-(2-(4-morpholinophenylamino)pyrimidin-4-ylthio)benzyl)acrylamide] | < 20000 nM
